From a melting point compilation (Tetko et al.; mined from patent text by program, amines drawn as free bases though some values may be those of a salt)

Compound `CC(C)(C)c1ccc(C(=O)Nc2ccc(N)cc2)cc1` has a melting point of 111 to 113 °C. Work on `CS(=O)(=O)Cc1cccc(C(F)(F)F)c1[N+](=O)[O-]` yielded a melting point of 110 to 113 °C. For `CCOC(=O)Cc1ccc(-c2ccc(-c3ccccc3)cc2)o1`, the melting point was 77 to 78 °C. In the case of `NC(=O)NCc1ccc2c(c1)OCO2`, the melting point is reported as 183 to 184 °C. With `O=C(ON=C(Br)Br)c1ccc(Cl)cc1` the melting point was 93 to 97 °C. With `CCCCCCCCCCCCCCCCCC(=O)Oc1cc(OC)cc(OC)c1C(=O)C=Cc1ccc(OC)cc1` the melting point was 65 to 66 °C. With `O=[N+]([O-])c1ccc(CN2CCC(C(c3ccccc3)c3ccccc3)CC2)cc1` the melting point was 130 to 131 °C. Work on `COc1ccc(C2=N[C@H](c3ccccc3)[C@@H](OC(=O)Nc3ccc(Cl)c(Cl)c3)CO2)cc1` (racemic) yielded a melting point of 130 °C. For `Nc1c(-c2cc(Cl)ccc2O)c2c(Cl)cc(Cl)cc2[nH]c1=O`, the melting point was 275 to 277 °C. `COc1cc2nc3c(c(-c4cc(OC)c(O)c(OC)c4)c2cc1OC)C(=O)OC3` gave a melting point of 247 to 248 °C. For `CC(=O)N1CCNC1=Nc1ccc(Cl)cc1Cl`, the melting point was 168 to 169 °C. In the case of `O=S1(=O)CCCN1Cc1ccncc1`, the melting point is reported as 82 °C. `CSC(=NC#N)NCCSc1ncccc1C(=O)c1ccccc1` showed a melting point of 180 to 181 °C. In the case of `COc1cc(-c2nnc(C)s2)cc2oc(=O)c(Cl)c(C)c12`, the melting point is reported as 176 to 177 °C. Work on `Oc1ccc(F)nc1I` yielded a melting point of 96 to 98 °C. With `CC#CC1CCC(C2CCC(c3ccc(CCC)cc3)CC2)CC1` (configuration not stated) the melting point was 70 °C. In the case of `O=C(O)C1CSC(C2CC3C=CC2C3)N1` (mixture of isomers), the melting point is reported as 220 °C. With `CSC(=CC(=O)C(F)(F)F)NCc1ccc(Cl)nc1` the melting point was 112 °C. With `CCOc1ccc(C23CC2CN(C=O)C3)cc1` (configuration not stated) the melting point was 48 to 51 °C. With `COc1cc(C=CC(=O)c2ccc(-c3cccs3)s2)ccc1O` the melting point was 166 to 168 °C. Work on `CC1(C)CCC(C)(C)c2c(CC#Cc3ccc(C(=O)O)cc3)cc(-c3ccccc3)cc21` yielded a melting point of 228 °C. With `CC(=O)Nc1ccc(C(C)(C)C)cc1[N+](=O)[O-]` the melting point was 109 to 110 °C. `C[C@@H](NC(=O)c1c[nH]c2ncc(-c3nn(C)c4cc(F)ccc34)nc12)C(=O)N1CC(C#N)C1` gave a melting point of 270 to 277 °C. In the case of `CCCC(=O)Nc1n[nH]c2cc(Cl)c(-c3ccccc3)cc12`, the melting point is reported as 235 °C. `COc1ccc(OC)c(C2(O)CCCCC2C(c2ccccc2)N(C)C)c1` (configuration not stated) showed a melting point greater than 240 °C. Work on `CCOC(=O)CC1(c2ccc(Cl)c(Cl)c2)CNC(=O)C1` (configuration not stated) yielded a melting point of 87 to 90 °C. For `CC(C)(C)C(=O)Nc1cccc(P(c2ccccc2)c2cccc3ccccc23)n1` (configuration not stated), the melting point was 55 °C. `CC(C)(C)C(=O)N1CCN(c2ccc(C(=O)CSc3ccnc4ccccc34)cc2)CC1` gave a melting point of 174 to 176 °C. Compound `CCCCc1nc2cccc(C(=O)OCC)c2n1Cc1ccc(-c2ccccc2-c2nnn[nH]2)cc1` has a melting point of 138 to 139 °C. `CCOC(=O)Cc1ccccc1N[C@@H](CCC(N)=O)C(=O)O` showed a melting point of 171 to 172 °C. `CN1C(=O)CCC1(O)c1ccc(Cl)c(S(N)(=O)=O)c1` (configuration not stated) showed a melting point of 147 to 149 °C. Work on `CC(C)CN(CC(O)C(Cc1ccccc1)NC(=O)C(CC(N)=O)NC(=O)NCc1ccccc1)C(=O)NC(C)(C)C` (configuration not stated) yielded a melting point of 164 to 166 °C. Work on `CC1(C)CC(C)(O)C2CCC2(C)C1` (configuration not stated) yielded a melting point of 54 to 55 °C. Work on `COc1nc(C)cnc1NS(=O)(=O)c1cccnc1-c1ccc(CC(C)(C)C)cc1` yielded a melting point of 159 to 160 °C. In the case of `O=C(O)C(Cc1ccc2ccccc2c1)NC(=O)C(CS)C(F)(F)F` (configuration not stated), the melting point is reported as 165 to 167 °C. Compound `COc1cccc(C2(C(C)(C)O)CCN(C)CC2)c1` has a melting point of 100 °C. `CCOC(=O)C1(C)OC2(O)C3CCCN3C(=O)C(Cc3ccccc3)N2C1=O` (configuration not stated) showed a melting point of 134 to 136 °C. With `COC(=O)c1ccc(C(=O)NCC(C)C)c([N+](=O)[O-])c1` the melting point was 90 to 91 °C. With `COc1cc(Nc2c(C#N)cnc3cc4cc(OCCCCl)c(OC)cc4cc23)c(Cl)cc1Cl` the melting point was 220 to 223 °C. For `OCC(O)COc1ccc(-c2nc(-c3cccs3)c[nH]2)cc1` (configuration not stated), the melting point was 197 to 200 °C. In the case of `O=C1CN(Cc2ccccc2)CC2=C1N=C1N=C(N3CCOCC3)NN1C2`, the melting point is reported as 291 to 293 °C. Work on `Cn1cc(C(=O)O)c(=O)c2cc(F)c(Cl)cc21` yielded a melting point of 342 °C. With `Clc1cccc2c1Oc1ccccc1NC2` the melting point was 71 to 73 °C. `COc1ccnn2c(-c3ccnc(N)c3)c(-c3ccc(F)c(C)c3)nc12` gave a melting point of 219 to 220 °C. Compound `COc1cccc(OC(=O)/C=C/c2ccc(C(C)(C)C)cc2)c1` has a melting point of 83 °C. In the case of `Cc1cc(C)cc(S(=O)c2c(C(C)C)nc(C)n2C)c1` (configuration not stated), the melting point is reported as 100 to 101 °C. Compound `CNC(=O)c1c(N)cccc1OC` has a melting point of 186 to 189 °C. In the case of `CCOC(=O)C1=C(C)NC(c2cscn2)=NC1c1ccc(F)cc1` (configuration not stated), the melting point is reported as 118 to 120 °C. `CC(C)(C)OC(=O)N1CCC(N2C(=O)OCc3cc(Cl)ccc32)CC1` showed a melting point of 177 to 179 °C. Compound `FC(F)(F)c1cc(-c2ccc(Cl)c(Cl)c2)nc2c(-c3nc(Nc4ccccn4)no3)cnn12` has a melting point of 289 °C. `CC1CS(=O)C(c2cccs2)=NO1` (configuration not stated) gave a melting point of 114 to 115 °C. In the case of `CCOC(=O)COc1cc(OC)c2c(c1[N+](=O)[O-])OC1(CCCCC1)CC2=O`, the melting point is reported as 142 to 143 °C. With `CS(=O)(=O)N(Cc1ccccc1)c1ccc(C2CO2)cc1` (configuration not stated) the melting point was 89 to 92 °C. With `CCOC(=O)c1cc2c(=O)n(C3CCCC3)c3ccccc3n2c1` the melting point was 183 to 185 °C. For `c1cncc(-c2ccc3nnn(Cc4ccc5ncccc5c4)c3n2)c1`, the melting point was 208 to 210 °C. For `Cn1cc(C2=C(c3cn(CCCN)c4ccccc34)C(=O)NC2=O)c2ccccc21`, the melting point was 195 to 197 °C. With `O=C(CCS)N[C@@H](Cc1ccccc1)C(=O)O` the melting point was 106 to 107 °C. Work on `Cc1ccccc1Nc1nc(N(C)c2ccccc2)c2sccc2n1` yielded a melting point of 198 to 200 °C. For `CCCC(CCC)N1CCc2c(C(=O)O)cc(F)cc2C1=O`, the melting point was 143 °C. For `Nc1ncnc2c1nc(OC(=O)c1ccccc1)n2Cc1ccccc1`, the melting point was 227 to 229 °C. For `C=CC(c1ccccc1)c1c(C)c(NC=O)c(C)c(C)c1O` (configuration not stated), the melting point was 144 to 145 °C. `CCCCNC(=O)Cc1ccc2c(c1)c(Cc1ccc(C(=O)O)cc1OC)cn2C` showed a melting point of 92 to 95 °C. For `COC(=O)c1cc2cc(OC)c(OC)cc2c(-c2cccnc2)c1C(=O)OC`, the melting point was 95 to 96 °C. `Cc1nc(C)c(Cl)c(NCc2nccc(SCCCCN3CCNCC3)c2C)n1` gave a melting point of 143 to 145 °C. `COC(C)=CC(=O)Nc1cccc(OC(=O)NC(C)C)c1` gave a melting point of 210 °C. Work on `CC(C)CNc1nccc(Oc2ccc(NC(=O)c3cc(F)cc(N4CCOCC4)c3)c3ccccc23)n1` yielded a melting point of 96 to 97 °C. `COc1ccc(NC(=O)C(C)(C)CCCOc2cc(C)ccc2C)cc1OC` gave a melting point of 110 to 111 °C. With `N#Cc1cc(-c2cccc(F)c2)c[nH]c1=O` the melting point was 261 to 266 °C. In the case of `Cc1cc(Cl)ccc1C(=O)NN(CCF)CCF`, the melting point is reported as 85 to 87 °C. Compound `CC(C)N(c1nc(Cl)nc(N2C(C)(C)CC3(CC2(C)C)OCCO3)n1)C(C)C` has a melting point of 179 to 184 °C. With `CCOC(=O)c1c(N2CCN(C(=O)c3cccs3)CC2)c2cccnc2n(Cc2ccc(OC(C)=O)cc2)c1=O` the melting point was 123 °C. Work on `O=C(Nc1ccc(Cl)cn1)c1cc(Cl)ccc1NCC1CCN(C2CCCCC2)CC1` yielded a melting point of 186 to 188 °C. With `O=c1nc(-c2ccccc2)c2cc(Cl)ccc2n1CC(F)(F)F` the melting point was 184 to 185 °C. `CC(=O)Nc1ccc2oc(C(=O)O)cc2c1` showed a melting point greater than 300 °C. In the case of `O=C(Nc1cccc(-c2cnc(-c3cccc(NC(=O)c4ccccn4)c3)[nH]2)c1)c1ccccn1`, the melting point is reported as 208 to 210 °C. For `CCOCc1nc2c(N)nc3ccccc3c2s1`, the melting point was 149 to 151 °C. Compound `CCn1nc(C)c2c1C(=NC#N)NCC(c1ccc(O)cc1)=N2` has a melting point of 300 °C. `CCCCCCCCCC(=O)NCCCCCC(=O)OO` showed a melting point of 63 to 67 °C. `COc1ccccc1N1CCN(C[C@@H](CC2CCCCC2)NC(=O)C2CCCCC2)CC1` showed a melting point of 121 to 131 °C. Compound `Cc1ccc(NC(=O)C(C)(C)C)c(-c2cccc(Br)n2)c1` has a melting point of 120 to 126 °C. For `CC12CCCC1C1CCc3cc(F)ccc3C1CC2` (configuration not stated), the melting point was 178 °C. Compound `CCN1CCN(c2ccc(-c3ccc4c(Nc5ccc(Sc6nccn6C)c(Cl)c5)c(C#N)cnc4c3)nc2)CC1` has a melting point of 246 to 248 °C. `CCc1nc(C)[nH]c1Sc1ccccc1` gave a melting point of 171 °C. In the case of `CN(C)S(=O)(=O)Cc1ccccc1S(N)(=O)=O`, the melting point is reported as 145 to 150 °C. In the case of `COCC1CN=C(c2ccc(OCCCCCCCc3cc(C)no3)cc2)O1` (configuration not stated), the melting point is reported as 53 to 55 °C. Compound `O=c1[nH]cccc1-c1ccccc1` has a melting point of 223 to 229 °C. With `O=C(O)c1ccc(NC(=O)c2ccccc2-c2ccccc2)cc1Cl` the melting point was 217 to 219 °C. For `CC(C)(C)C1Cn2c(nc3ccccc32)-c2ccccc2O1` (configuration not stated), the melting point was 149 to 150 °C. Work on `CN(CCCc1nc2ccccc2[nH]1)C(=O)OCc1ccccc1` yielded a melting point of 83 to 86 °C. With `CC(=O)N(c1cc([N+](=O)[O-])c(F)cc1Cl)S(=O)(=O)CCl` the melting point was 183 to 187 °C. `Cc1c(-c2ccccc2)oc2c(SCCCCCl)cccc2c1=O` gave a melting point of 81 to 84 °C. `COc1cc2c(=O)cc[nH]c2cc1OCc1ccccc1` showed a melting point of 235 to 236 °C. Work on `Cn1c(=O)cnn(-c2cc(N)c(Cl)cc2F)c1=O` yielded a melting point of 150 to 152 °C. In the case of `O=C(Nc1cccc2c1C(=O)c1c-2n[nH]c1C1CCN(C(=O)N2C[C@@H]3C[C@H]2CN3)CC1)NN1CCOCC1`, the melting point is reported as 196 to 198 °C. `CC(=Cc1cccc(SC(F)(F)F)c1)[N+](=O)[O-]` showed a melting point of 48 °C. `COc1ccc(COCc2ccc(OC)cc2)cc1` showed a melting point of 58 to 59 °C. Work on `N#Cc1cccc(-n2c(=O)c(N3CCCCCC3)cc3cccnc32)c1` yielded a melting point of 215 to 217 °C. Work on `C[C@@H]1CC=C(S(=O)(=O)c2ccccc2)[C@H](O)C1` yielded a melting point of 79 to 81 °C. With `O=c1cc(-c2ccc(OCCOc3ccc(-c4cc(=O)c5c(O)cc(O)cc5o4)cc3)cc2)oc2cc(O)cc(O)c12` the melting point was 352 to 355 °C. In the case of `Cc1ccc(OCc2ccccc2)c(C(=O)O)c1C(=O)O`, the melting point is reported as 200 to 203 °C. Compound `O=C(Nc1cc(C2OCCCO2)ccc1O)c1ccccc1OCCCCc1ccccc1` has a melting point of 122 to 123 °C. `Cc1cc(CN2N=C(C(F)(F)C(F)(F)F)NC2(O)C(C)(C)C)ccc1[N+](=O)[O-]` (configuration not stated) gave a melting point of 125 to 128 °C.
